Experimental findings from ChEMBL document CHEMBL4033631, “Discovery of benzothiazole derivatives as novel non-sulfamide NEDD8 activating enzyme inhibitors by target-based virtual screening” (Eur J Med Chem, 2017) are described below.

The subject of one assay is HCT-116. Kind of assay: Antitumor activity against human HCT116 cells after 72 hrs by MTT assay. In kind it is functional, cell-based. The conditions noted are these: HCT-116, 72 h.
In another assay the test system is U2OS. Kind of assay: Antitumor activity against human U2OS cells after 72 hrs by MTT assay. In kind it is functional, cell-based. (Tetrazolium assays rely on reduction of a dye to a coloured formazan, in cell work by metabolically active cells.)
The species named for assay [1] is Homo sapiens. Kind of assay: Inhibition of NAE in human HCT116 cells assessed as decrease in NEDD8 level after 4 hrs by Western blot analysis. In kind it is cell-based. In general terms: A western blot detects proteins with antibodies after separation by electrophoresis.
The species entered for assay [2] is Homo sapiens. Kind of assay: Inhibition of NAE in human HCT116 cells assessed as decrease in NEDD8-UBC12 complex formation after 4 hrs by Western blot analysis. In kind it is cell-based.

Molecules are shown by their SMILES. pIC50: −log10 of the molar value. Where only a bound is given, the exact number is not on record here.

In general, pIC50 refers to the negative decadic logarithm of the IC50, by convention in mol/L. A high value points to a low IC50. On to `Cc1ccc(C(=O)Nc2nc3ccc(NC(=O)CSc4ccc(Cl)cc4)cc3s2)cc1`, for which the values for the pIC50 in the assay with HCT-116 and with U2OS were 5.67 and 5.50, respectively.
Consider `Cc1cc(C)cc(C(=O)Nc2nc3ccc(NC(=O)CSc4cccc(O)c4)cc3s2)c1`, for which the negative logarithm of the IC50 (pIC50) was 5.29 in the assay on HCT-116 and 5.55 in the assay with U2OS.
Taken in the same sequence, the figures for `COc1ccc(C(=O)Nc2nnc(SCC(=O)Nc3ccc(Br)cc3)s2)cc1OC` were 4.18 and less than 4.00.
On to `O=C(CSc1ccc2ccccc2c1)Nc1ccc2nc(NC(=O)c3ccc(C(F)(F)F)cc3)sc2c1`, for which the inhibition result in the assay listed under Homo sapiens [1] and in the assay filed under Homo sapiens [2] was “Dose-dependent effect” in each case. Further, the pIC50 in the assay on HCT-116 was 6.52; in the assay with U2OS, 5.40.
Turning to `Cn1c(CNC(=O)c2cccs2)nnc1SCC(=O)Nc1ccc(Cl)cc1`, the values for the pIC50 in the assay with HCT-116 and in the assay with U2OS were 4.04 and less than 4.00, respectively.
For `O=C(CSc1cccc(O)c1)Nc1ccc2nc(NC(=O)c3cc(Cl)cc(Cl)c3)sc2c1`, the pIC50 in the assay on HCT-116 is 5.26; with U2OS, 5.82.
In the case of `Cc1ccc(SCC(=O)Nc2ccc3nc(NC(=O)c4ccc(C(F)(F)F)cc4)sc3c2)c(C)c1`, the figures for the pIC50 with HCT-116 and in the assay on U2OS were 6.49 and 6.00, respectively.
For `O=C(CSc1ncccn1)Nc1ccc2nc(NC(=O)c3ccc(C(F)(F)F)cc3)sc2c1` the same measures were 5.65 and 4.55.
For the compound `O=C(CSc1nnc(NC(=O)COc2ccccc2)s1)Nc1ccc(Br)cc1`, the pIC50 with HCT-116 and with U2OS was less than 4.00 in each case.
Regarding `O=C(Cc1nnc(NC(=O)c2ccc(Cl)cc2)s1)N/N=C/c1ccc(O)cc1O`, the values for the pIC50 in the assay on HCT-116 and in the assay with U2OS were 4.42 and 4.39, respectively.
For `CCCC(=O)Nc1nc2ccc(NC(=O)CSc3ccc(Cl)cc3)cc2s1` the same measures were 5.67 and 5.50.
Taken in the same sequence, the figures for `Cc1cc(C)cc(C(=O)Nc2nc3ccc(NC(=O)CSc4ccc(Cl)cc4)cc3s2)c1` were 4.19 and less than 4.00.
For `O=C(CSc1cccc(O)c1)Nc1ccc2nc(NC(=O)c3ccc(F)cc3)sc2c1` the same measures were 5.21 and 5.29.
For the compound `Nc1ccc(SCC(=O)Nc2ccc3nc(NC(=O)c4ccc(C(F)(F)F)cc4)sc3c2)cc1`, the inhibition entry in the assay filed under Homo sapiens [1] and in the assay filed under Homo sapiens [2] was “Dose-dependent effect” each time. Besides, the figures for the pIC50 with HCT-116 and in the assay with U2OS were 7.00 and 5.91, respectively.
Consider `O=C(CSc1cccc(O)c1)Nc1ccc2nc(NC(=O)c3ccc(C(F)(F)F)cc3)sc2c1`, for which the inhibition entry in the assay listed under Homo sapiens [1] and in the assay listed under Homo sapiens [2] was “Dose-dependent effect” each time. Further, the values for the pIC50 in the assay on HCT-116 and in the assay with U2OS were 6.29 and 6.20, respectively.
In the case of `CCn1c(CNc2ccc(OC)cc2)nnc1SCC(=O)Nc1ccc(Cl)cc1`, the pIC50 was 4.40 in the assay with HCT-116 and 4.20 in the assay on U2OS.
As for `Cn1c(CNC(=O)c2cccs2)nnc1SCC(=O)Nc1cccc(Cl)c1`, the pIC50 in the assay with HCT-116 and in the assay with U2OS was less than 4.00 each time.
For `COc1cc(CNC(C)(C)CO)ccc1OCC(=O)Nc1ccc(C)cc1`, the pIC50 with HCT-116 and in the assay on U2OS was less than 4.00 throughout.
`O=C(CSc1cccc(O)c1)Nc1ccc2nc(NC(=O)c3ccccc3)sc2c1`: the pIC50 was 4.39 in the assay on HCT-116 and less than 4.00 with U2OS.
For the compound `O=C(CSc1ccc(Cl)cc1)Nc1ccc2nc(NC(=O)c3ccc4ccccc4c3)sc2c1`, the pIC50 was 5.39 in the assay with HCT-116 and 4.84 in the assay with U2OS.
For `NS(=O)(=O)OC[C@@H]1C[C@@H](n2ccc3c(N[C@H]4CCc5ccccc54)ncnc32)C[C@@H]1O` [PEVONEDISTAT], the pIC50 with HCT-116 was 6.72; with U2OS, 6.80.
For `O=C(CSc1cccc(O)c1)Nc1ccc2nc(NC(=O)c3cccs3)sc2c1` the same measures were 5.15 and 4.20.
Taken in the same sequence, the figures for `O=C(CSc1nc2ccccc2[nH]1)Nc1ccc2nc(NC(=O)c3ccc(C(F)(F)F)cc3)sc2c1` were 5.42 and 5.15.
On to `CC(O)c1cccc(NC(=O)c2cc(Br)ccc2Br)c1` (configuration not stated), for which the pIC50 in the assay with HCT-116 and in the assay with U2OS was less than 4.00 throughout.
On to `O=C(CSc1ncc[nH]1)Nc1ccc2nc(NC(=O)c3ccc(C(F)(F)F)cc3)sc2c1`, for which the pIC50 with HCT-116 is 5.57; with U2OS it was 4.73.
Taken in the same sequence, the figures for `Cc1nc(Nc2nc3ccccc3o2)nc(C)c1C(=O)Nc1ccc(F)cc1` were 4.81 and 4.10.
For `O=C(Cc1nnc(NC(=O)c2ccc(Cl)cc2)s1)N/N=C/c1ccc(O)cc1` the same measures were 4.17 and less than 4.00.
Taken in the same sequence, the figures for `O=C(CSc1cccc(O)c1)Nc1ccc2nc(NC(=O)c3ccc4ccccc4c3)sc2c1` were 5.37 and 5.75.
Regarding `O=C(CSc1ccc(Cl)cc1)Nc1ccc2nc(NC(=O)c3ccc(C(F)(F)F)cc3)sc2c1`, the pIC50 is 6.03 with HCT-116 and 5.54 in the assay with U2OS.
Taken in the same sequence, the figures for `O=C(CSc1ccc(Cl)cc1)Nc1ccc2nc(NC(=O)c3ccc(F)cc3)sc2c1` were 5.87 and 5.60.
Take `Cc1ccc(C(=O)Nc2nc3ccc(NC(=O)CSc4cccc(O)c4)cc3s2)cc1`: the pIC50 in the assay on HCT-116 was 5.11; in the assay on U2OS, 4.91.
Taken in the same sequence, the figures for `CCCC(=O)Nc1nc2ccc(NC(=O)CSc3cccc(O)c3)cc2s1` were 4.98 and 4.99.
For `O=C(Cn1cc(F)c(=O)n(CC(=O)Nc2ccc(Br)cn2)c1=O)Nc1ccc(Br)cn1` the same measures were 4.95 and 5.29.
For `O=C(CSc1ncccc1C(=O)O)Nc1ccc2nc(NC(=O)c3ccc(C(F)(F)F)cc3)sc2c1` the same measures were 5.64 and 4.87.
Turning to `COc1ccc(/C=N/NC(=O)c2ccc(NC(=O)c3ccccc3Br)cc2)cc1`, the pIC50 is less than 4.00 with HCT-116 and 4.03 with U2OS.
For `O=C(CSC1CCCCC1)Nc1ccc2nc(NC(=O)c3ccc(C(F)(F)F)cc3)sc2c1` the same measures were 4.68 and 4.91.
For `Cc1ccc(S(=O)(=O)Nc2nc(C)c(NC(=O)Nc3ccc(Cl)cc3)s2)cc1` the same measures were 4.32 and 4.05.
Taken in the same sequence, the figures for `Oc1ccc(Cl)cc1/C=N/c1ccc(-c2nc3ccccc3o2)c(O)c1` were 4.70 and 4.66.
